Measurements taken from PubChem BioAssay (NCI).
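Tested at 5 concentrations; 48 h exposure; 96-well plates; endpoints linearly interpolated, else capped at highest concentration. TGI denotes the concentration required for complete inhibition of growth.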

Experiments:
Test in all cases: DTP human tumour cell line panel, 48 h
T-47D breast = system: T-47D breast
HCT-116 colon = system: HCT-116 colon
NCI/ADR-RES ovarian = system: NCI/ADR-RES ovarian
NCI-H522 lung = system: NCI-H522 lung
SNB-19 CNS = system: SNB-19 CNS
M14 melanoma = system: M14 melanoma
RXF 393 renal = system: RXF 393 renal
786-0 renal = system: 786-0 renal
OVCAR-3 ovarian = system: OVCAR-3 ovarian
DU-145 prostate = system: DU-145 prostate
IGROV1 ovarian = system: IGROV1 ovarian
KM12 colon = system: KM12 colon
ACHN renal = system: ACHN renal
U251 CNS = system: U251 CNS
HOP-92 NSCLC = system: HOP-92 NSCLC
A549 NSCLC = system: A549 NSCLC
MDA-N = system: MDA-N
MOLT-4 leukemia = system: MOLT-4 leukemia
LOX IMVI melanoma = system: LOX IMVI melanoma
OVCAR-8 ovarian = system: OVCAR-8 ovarian
RPMI-8226 leukemia = system: RPMI-8226 leukemia
BT-549 breast = system: BT-549 breast
K-562 leukemia = system: K-562 leukemia
TK-10 renal = system: TK-10 renal
MCF7 breast = system: MCF7 breast
A498 renal = system: A498 renal
SK-MEL-5 melanoma = system: SK-MEL-5 melanoma
NCI-H226 lung = system: NCI-H226 lung
SF-268 CNS = system: SF-268 CNS
SNB-75 CNS = system: SNB-75 CNS
SK-MEL-28 melanoma = system: SK-MEL-28 melanoma
OVCAR-5 ovarian = system: OVCAR-5 ovarian
EKVX NSCLC = system: EKVX NSCLC
NCI-H23 lung = system: NCI-H23 lung
MDA-MB-231 breast = system: MDA-MB-231 breast
SR leukemia = system: SR leukemia
SF-295 CNS = system: SF-295 CNS
SW-620 colon = system: SW-620 colon
HCT-15 colon = system: HCT-15 colon
SK-OV-3 ovarian = system: SK-OV-3 ovarian
HS 578T breast = system: HS 578T breast
CAKI-1 renal = system: CAKI-1 renal
HT29 colon = system: HT29 colon
SN12C renal = system: SN12C renal
CCRF-CEM leukemia = system: CCRF-CEM leukemia
SK-MEL-2 melanoma = system: SK-MEL-2 melanoma
PC-3 prostate = system: PC-3 prostate
HL-60(TB) leukemia = system: HL-60(TB) leukemia
OVCAR-4 ovarian = system: OVCAR-4 ovarian
MALME-3M melanoma = system: MALME-3M melanoma
UACC-257 melanoma = system: UACC-257 melanoma
MDA-MB-435 = system: MDA-MB-435
UO-31 renal = system: UO-31 renal
HOP-62 NSCLC = system: HOP-62 NSCLC
COLO 205 colon = system: COLO 205 colon
UACC-62 melanoma = system: UACC-62 melanoma
HCC-2998 colon = system: HCC-2998 colon
SF-539 CNS = system: SF-539 CNS
NCI-H460 lung = system: NCI-H460 lung

COc1ccccc1[C@@H]1CCC2CC[C@@H](c3ccccc3OC)[N+]21Cc1ccccc1 (stereo not given in full)
TGI (T-47D breast): 10.8 µM | TGI (HCT-116 colon): 13.1 µM | TGI (NCI/ADR-RES ovarian): 32.3 µM | TGI (NCI-H522 lung): 11.5 µM | TGI (SNB-19 CNS): 16.5 µM | TGI (M14 melanoma): 12 µM | TGI (RXF 393 renal): 8.53 µM | TGI (786-0 renal): 15.4 µM | TGI (OVCAR-3 ovarian): 10.7 µM | TGI (DU-145 prostate): 13.7 µM | TGI (IGROV1 ovarian): 5.7 µM | TGI (KM12 colon): 7.03 µM | TGI (ACHN renal): 12.6 µM | TGI (U251 CNS): 11.2 µM | TGI (HOP-92 NSCLC): 4.06 µM | TGI (A549 NSCLC): 13.1 µM | TGI (MDA-N): 12.6 µM | TGI (MOLT-4 leukemia): 7.43 µM | TGI (LOX IMVI melanoma): 13.2 µM | TGI (OVCAR-8 ovarian): 13.8 µM | TGI (RPMI-8226 leukemia): 1.47 µM | TGI (BT-549 breast): 7.63 µM | TGI (K-562 leukemia): 12.7 µM | TGI (TK-10 renal): 20.3 µM | TGI (MCF7 breast): 12.2 µM | TGI (A498 renal): 7.66 µM | TGI (SK-MEL-5 melanoma): 1.64 µM | TGI (NCI-H226 lung): 6.73 µM | TGI (SF-268 CNS): 17.4 µM | TGI (SNB-75 CNS): 8.65 µM | TGI (SK-MEL-28 melanoma): 22.3 µM | TGI (OVCAR-5 ovarian): 12.9 µM | TGI (EKVX NSCLC): 1.86 µM | TGI (NCI-H23 lung): 6.63 µM | TGI (MDA-MB-231 breast): 9.83 µM | TGI (SR leukemia): 7.07 µM | TGI (SF-295 CNS): 8.57 µM | TGI (SW-620 colon): 22.5 µM | TGI (HCT-15 colon): 15.2 µM | TGI (SK-OV-3 ovarian): 11.7 µM | TGI (HS 578T breast): 35.8 µM | TGI (CAKI-1 renal): 18.8 µM | TGI (HT29 colon): 10.1 µM | TGI (SN12C renal): 10.4 µM | TGI (CCRF-CEM leukemia): 20.3 µM | TGI (SK-MEL-2 melanoma): 8.86 µM | TGI (PC-3 prostate): 7.94 µM | TGI (HL-60(TB) leukemia): 4.88 µM | TGI (OVCAR-4 ovarian): 16.1 µM | TGI (MALME-3M melanoma): 15.3 µM | TGI (UACC-257 melanoma): 14.1 µM | TGI (MDA-MB-435): 10.5 µM | TGI (UO-31 renal): 10.6 µM | TGI (HOP-62 NSCLC): 13.3 µM | TGI (COLO 205 colon): 1.84 µM

COC(=O)CN(CC1O[C@@H]2OC(C)(C)O[C@@H]2C1NC(C)=O)C(=O)OCc1ccccc1 (stereo not given in full)
TGI (T-47D breast): > 100 µM | TGI (HCT-116 colon): > 100 µM | TGI (NCI/ADR-RES ovarian): > 100 µM | TGI (NCI-H522 lung): > 100 µM | TGI (SNB-19 CNS): > 100 µM | TGI (M14 melanoma): > 100 µM | TGI (UACC-62 melanoma): > 100 µM | TGI (786-0 renal): > 100 µM | TGI (OVCAR-3 ovarian): > 100 µM | TGI (HCC-2998 colon): > 100 µM | TGI (DU-145 prostate): > 100 µM | TGI (IGROV1 ovarian): > 100 µM | TGI (KM12 colon): > 100 µM | TGI (ACHN renal): > 100 µM | TGI (U251 CNS): > 100 µM | TGI (HOP-92 NSCLC): > 100 µM | TGI (A549 NSCLC): > 100 µM | TGI (MDA-N): > 100 µM | TGI (MOLT-4 leukemia): > 100 µM | TGI (LOX IMVI melanoma): > 100 µM | TGI (OVCAR-8 ovarian): > 100 µM | TGI (RPMI-8226 leukemia): > 100 µM | TGI (BT-549 breast): > 100 µM | TGI (K-562 leukemia): > 100 µM | TGI (TK-10 renal): > 100 µM | TGI (MCF7 breast): > 100 µM | TGI (A498 renal): > 100 µM | TGI (SK-MEL-5 melanoma): > 100 µM | TGI (NCI-H226 lung): > 100 µM | TGI (SF-268 CNS): > 100 µM | TGI (SNB-75 CNS): > 100 µM | TGI (SK-MEL-28 melanoma): > 100 µM | TGI (OVCAR-5 ovarian): > 100 µM | TGI (EKVX NSCLC): > 100 µM | TGI (MDA-MB-231 breast): > 100 µM | TGI (SR leukemia): > 100 µM | TGI (SF-295 CNS): > 100 µM | TGI (SW-620 colon): > 100 µM | TGI (HCT-15 colon): > 100 µM | TGI (SK-OV-3 ovarian): > 100 µM | TGI (HS 578T breast): > 100 µM | TGI (CAKI-1 renal): > 100 µM | TGI (HT29 colon): > 100 µM | TGI (SN12C renal): > 100 µM | TGI (SK-MEL-2 melanoma): > 100 µM | TGI (PC-3 prostate): > 100 µM | TGI (HL-60(TB) leukemia): > 100 µM | TGI (OVCAR-4 ovarian): > 100 µM | TGI (SF-539 CNS): > 100 µM | TGI (NCI-H460 lung): > 100 µM | TGI (UACC-257 melanoma): > 100 µM | TGI (MDA-MB-435): > 100 µM | TGI (UO-31 renal): > 100 µM | TGI (HOP-62 NSCLC): > 100 µM | TGI (COLO 205 colon): > 100 µM
